Where a SMILES comes first, the peptide text is derived from it. [ ]: non-standard residue; d: D form. Tyr(3-I) = N[C@@H](Cc1ccc(O)c(I)c1)C(=O)O; Sta = CC(C)C[C@H](N)[C@@H](O)CC(=O)O; AEEA = NCCOCCOCC(=O)O
Experiments:
[1] = tested on: GRPR-expressing PC-3 tumour xenograft; experiment: in vivo; conditions: PC-3 xenograft
Protocol: (§1) Animal studies were planned and performed in agreement with EU Directive 2010/63/EU for animal experiments and Swedish national legislation concerning protection of laboratory animals. Experiments were approved by the Ethics Committee for Animal Research in Uppsala (C4/16, 26 February 2016). Biodistribution studies were performed in female BALB/C nu/nu mice purchased from Scanbur A/S (Karlslunde, Denmark). GRPR-expressing xenografts were established by subcutaneous injection of 5 × 10^6 PC-3 cells/mouse in the right hind leg of mice 3 weeks before the experiment. The animals were randomized into groups of four mice for each data point.
(§2) Mice were euthanized followed by dislocation of their neck at 0.5 h after injection and blood samples were collected by heart puncture. At 3 and 24 h after injection, mice were euthanized by an intraperitoneal injection of anaesthetic solution (20 µL of solution per gram of body weight: Ketalar, 10 mg/mL; Rompun, 1 mg/mL) followed by heart puncture. Salivary glands, thyroid, lung, liver, spleen, pancreas, stomach, small intestine, kidneys, tumour, muscle, and bone were collected and weighed. The organ radioactivity was measured in a gamma-counter and uptake values of organs were calculated as percentage of injected dose per gram tissue (% ID/g). To test the in vivo binding specificity, a group of mice was co-injected with 7.5 nmol of non-labelled peptide (NOTA-PEG4-RM26), and biodistribution was measured at 0.5 h after injection.

[2] = tested on: PC-3 cells; experiment: Cellular processing assay (membrane-bound and internalized radioactivity); format: cell-based, human; conditions: 1 nM, 37 °C
Protocol: At predetermined time points (1, 2, 4, 8, 24 h), incubation media was aspirated, cells were washed with serum-free media, and membrane-bound and internalized radioactivity were collected using the method described earlier. The membrane-bound radiolabelled conjugate were removed from cells by treatment with 4 M urea solution in a 0.1 M glycine buffer, pH 2, for 5 min on ice. The cell debris containing the internalized conjugate was detached by treatment with 1 M NaOH. Radioactivity of samples was measured, and percentage of membrane-bound, internalized and total radioactivity was calculated. The experiments were performed in triplicate.

[3] = tested on: GRPR-expressing PC-3 tumour xenograft; conditions: 0.5 h after injection; co-injection of non-labelled NOTA-PEG4-RM26
Protocol: as §1
as §2, with “Salivary glands, thyroid, lung, liver, spleen, pancreas, stomach, small intestine, kidneys, tumour, muscle, and bone were collected and weighed.” left out

[4] = tested on: PC-3 cells; experiment: In vitro binding specificity assay; format: cell-based, human; conditions: 1 nM, 1 h at 37 °C; 200-fold excess NOTA-PEG4-RM26 for blocking
Protocol: (§3) The in vitro binding specificity test of [^125I]I-Tyr-PEG2-RM26 was performed on PC-3 and DU-145 cell lines. […] The cells were incubated with 1 nM concentration of [^125I]I-Tyr-PEG2-RM26 solution for 1 h at 37 °C. To saturate GRPR, one set of dishes was treated with 200-fold molar excess of non-labelled peptide, NOTA-PEG4-RM26, 15 min before adding the radiolabelled compound. After washing with serum-free media, cells were detached by treatment with 1 mL trypsin-EDTA solution twice. Cell-associated radioactivity was measured in the gamma-counter and presented as percentage of cell-associated activity.

[5] = tested on: DU-145 cells; experiment: In vitro binding specificity assay; format: cell-based, human; conditions: 1 nM, 1 h at 37 °C; 200-fold excess NOTA-PEG4-RM26 for blocking
Protocol: as §3

[6] = HPLC
Protocol: In vitro stability of [^125I]I-Tyr-PEG2-RM26 was evaluated in PBS and in presence of 100-fold molar excess of sodium iodide (1 mM). After purification, samples of freshly labelled conjugate (10 µL, 0.01 nmol) were mixed with 1 µL of NaI and incubated at room temperature for 1 h. Control samples were mixed with equal volume of PBS. The experiment was performed in duplicates. The stability of [^125I]I-Tyr-PEG2-RM26 was analyzed by HPLC.

[7] = Protocol: Lipophilicity was determined as the logarithm of partition coefficient, logP, of the radiolabelled compound between n-octanol and water. To determine the lipophilicity of both radioconjugates, 500 µL of n-octanol was added to a tube containing the same volume of Milli-Q water. 1 pmol (10 kBq) of radioconjugate was added. The mixture was vigorously vortexed for 1–2 min and then centrifuged. Aliquots of 100 μL were taken from each phase and their radioactivity was measured by an automated gamma-counter. The partition coefficient was calculated as the average log of a ratio of the radioactivity in organic and aqueous fractions. Each measurement was repeated in triplicate.
[8] = tested on: PC-3 cells; experiment: Cell-associated radioactivity in presence of lysosomotropic bases or sodium azide/2-deoxyglucose; format: cell-based, human; conditions: 1 nM, 100 µM chloroquine, 20 mM ammonium chloride, 2-8 h at 37 °C
Protocol: Additionally, PC-3 cells were incubated with 1 nM of [^125I]I-Tyr-PEG2-RM26 in presence of 20 mM sodium azide/10 mM 2-deoxyglucose at 37 °C for 8 h. […] At predetermined time points (2, 4, and 8 h), media from a set of three dishes was removed, cells were detached by trypsin-EDTA solution, re-suspended, and radioactivity in cells was measured.

[9] = 0.5 h; 300 µg phosphoramidon co-injected; non-tumour bearing NMRI mice
Protocol: Two groups of 4 mice were used for this experiment. Biodistribution of [^125I]I-Tyr-PEG2-RM26 was evaluated in female NMRI mice (weight: 29.6 ± 1.7 g). Non-tumour bearing mice as a control group were injected with 40 pmol of [^125I]I-Tyr-PEG2-RM26 (30 kBq, 100 μL in PBS) into the tail vein. Another group of mice was injected with same activity by co-injection of PA (15 µL of 20 mg/mL stock solution, 300 µg). After 0.5 h, mice were euthanized by dislocation of their neck, and blood samples were collected. Salivary glands, thyroid, lung, liver, spleen, pancreas, stomach, small intestine, kidneys, […], muscle, and bone were collected and weighed. The organ radioactivity was measured in a gamma-counter and uptake values of organs were calculated as percentage injected dose per gram tissue (% ID/g).

CC(C)C[C@H](NC(=O)C[C@H](O)[C@H](CC(C)C)NC(=O)[C@H](Cc1c[nH]cn1)NC(=O)CNC(=O)[C@@H](NC(=O)[C@H](C)NC(=O)[C@H](Cc1c[nH]c2ccccc12)NC(=O)[C@H](CCC(N)=O)NC(=O)[C@@H](Cc1ccccc1)NC(=O)COCCOCCNC(=O)[C@@H](N)Cc1ccc(O)c(I)c1)C(C)C)C(N)=O [[^125I]I-Tyr-PEG2-RM26] (H-[Tyr(3-I)][AEEA][dF]QWAVGH[Sta]L-NH2)
Decrease of tumour uptake at 3 h compared to 0.5 h after injection [1]: more than 3 fold
Cellular processing pattern [2]: quite fast internalization during the first hour
Uptake in pancreas, blocked vs non-blocked group [3]: significantly (p < 0.05) reduced
Binding specificity to PC-3 cells [4]: receptor mediated
Binding specificity to DU-145 cells [5]: receptor mediated
In vitro stability in presence of excess 1 mM NaI ([6]; 100-fold molar excess NaI, 1 h at room temperature): 92 ± 3%
In vitro stability in PBS ([6]; 1 h incubation at room temperature): 95 ± 1%
logP [7]: 1 ± 0.1
Cell-bound activity and retention in presence of chloroquine and ammonium chloride vs control [8]: considerably higher compared to control
Influence of PA co-injection on blood clearance rate or uptake in normal non-targeted organs and tissues [9]: did not show any significant influence
Uptake in GRPR-positive organs (pancreas, small intestines, stomach) after co-injection of PA [9]: No significant increase
